Tested on: human myeloma cell line MM.1S
Assay: SILAC acetylated-lysine peptide profiling, HDAC inhibitor vs DMSO (light/heavy ratio)
Format: cell-based
Description: An embodiment of the invention comprises utilizing the SILAC method in order to quantitate changes in protein expression between two or more populations of cells. The SILAC method is a technique based on mass spectrometry that detects differences in protein abundance among samples using non-radioactive isotopic labeling. The SILAC method is known in the art, and described in detail in Ong et al., “Stable Isotope Labeling by Amino Acids in Cell Culture, SILAC, as a Simple and Accurate Approach to Expression Proteomics”, Molecular & Cellular Proteomics, vol. 1, pp. 376-386 (2002), which is incorporated herein by reference in its entirety.
Briefly, the SILAC method involves growing two populations of cells in cell culture. The first population of cells is grown in growth media containing normal amino acids (“normal media”). The second population of cells is grown in media lacking a standard essential amino acid (such as lysine), but is then supplemented with a non-radioactive, isotopically labeled form of that essential amino acid (such as lysine labeled with ^13C atoms, rather than normal ^12C atoms), which is called “heavy media”. When the two populations of cells are each growing in the medium, they incorporate the amino acids into all of their proteins. The growth of cells maintained in the heavy media is no different from that in normal media. All peptides containing the heavy amino acids are heavier than their normal counterparts. The cells from each of the two populations of cells are lysed. The lysates from each of the two cell populations are then combined. The combined cell lysates are then analyzed by mass spectrometry. Pairs of chemically identical peptides of different stable isotope composition can be differentiated in a mass spectrometer due to their difference in mass. The ratio of peak intensities in the mass spectrum for such peptide pairs reflects the abundance ratio for the two proteins.
This example describes SILAC studies that were performed to compare the effects of three different HDAC inhibitors (Compound A, Compound B, and tubastatin A) to a control on a human multiple myeloma cell line. The HDAC inhibitors were also compared amongst themselves to determine differences in their effects.
A human myeloma cell line MM.1S was grown using either ^12C (light) or ^13C (heavy) lysine containing culture medium. The “heavy” cells were treated with DMSO as the control, and the “light” cells were treated with a single HDAC inhibitor at 37° C. for 6 hours. The heavy and light cells were lysed, and the lysates were mixed in 1:1 ratio and digested with the protease trypsin. The acetylated lysine containing peptides (due to the action of the HDAC inhibitor) in the digested peptide pool were captured by a non-specific anti-acetylated lysine antibody cocktail (the antibodies identify both light and heavy acetylated peptides), and subjected to mass spectrometry analysis in order to identify thousands of individual peptides.
Thousands of peptides were identified in pairs (^12C and ^13C) due to their known mass differences. The amino acid sequence and quantitative ratio (Light/Heavy) of a given peptide in two differentially treated cell lysates were then determined and annotated with their possible protein (gene) sources.
As stated above, three HDAC inhibitors (Compound A, Compound B, and Tubastatin A) were used. Thus, the SILAC method was performed three times, with a different HDAC inhibitor compared to a control each time. Accordingly, there are three pairs of quantitative data in the table below, i.e., Compound A:DMSO, Compound B:DMSO, and Tubastatin A:DMSO. A cut-off of 1.30 fold of change (increase or decrease) was then used to determine “changed” or “+” in the table, and any peptides with a fold of change less than 1.3 fold were determined to be “unchanged” or “0” in the table. Those peptides that were not identified were marked as “NA” in the table. […]

What does the source list for `O=C(CCCCCCNC(=O)c1cnc(N(c2ccccc2)c2ccccc2)nc1)NO` [Compound A, 2-(diphenylamino)-N-(7-(hydroxyamino)-7-oxoheptyl)pyrimidine-5-carboxamide]?
light to heavy ratio (L/H ratio), log 2 scale, acetylated peptide VGDK(ac)[…] (SEQ ID NO: 773) (10 kDa heat shock protein mitochondrial [70], gene HSPE1, drug:DMSO): 1.00; light to heavy ratio (L/H ratio) of acetylated peptide AGEATVK(ac)FLK (SEQ ID NO: 580) (39S ribosomal protein L9 mitochondrial [165], gene MRPL9, inhibitor:DMSO): 0.43 log 2; light to heavy ratio (L/H ratio) of acetylated peptide IQEVLK(ac)HAR (SEQ ID NO: 264) (39S ribosomal protein L20 mitochondrial [26], MRPL20, drug:DMSO): 0.43 log 2; light to heavy ratio (L/H ratio) of acetylated peptide YIGK(ac)TMDYR (SEQ ID NO: 535) (39S ribosomal protein L24 mitochondrial [100], gene MRPL24, inhibitor:DMSO): −0.39 log 2; light to heavy ratio (L/H ratio) of acetylated peptide FQK(ac)ELER (SEQ ID NO: 618) (39S ribosomal protein L44 mitochondrial [43], gene MRPL44, inhibitor:DMSO): 0.48 log 2; light to heavy ratio (L/H ratio) of acetylated peptide FK(ac)LITEDVQGK (SEQ ID NO: 287) (40S ribosomal protein S3a [85], SNORD73A, RPS3A, drug:DMSO): 0.62 log 2; light to heavy ratio (L/H ratio) of acetylated peptide KDVHMPK(ac)HPELADK (SEQ ID NO: 353) (40S ribosomal protein S10 [31], RPS10, drug:DMSO): 0.00 log 2; light to heavy ratio (L/H ratio), log 2 scale, acetylated peptide K(ac)FGGPGAR (SEQ ID NO: 768) (40S ribosomal protein S16 [131], gene RPS16, drug:DMSO): 0.97; light to heavy ratio (L/H ratio) of acetylated peptide NK(ac)[…] (SEQ ID NO: 559) (40S ribosomal protein S17 [49], gene RPS17, RPS17L, inhibitor:DMSO): 0.40 log 2; light to heavy ratio (L/H ratio) of acetylated peptide ADGIVSK(ac)NF (SEQ ID NO: 599) (40S ribosomal protein S21 [81], gene RPS21, inhibitor:DMSO): 0.46 log 2; light to heavy ratio (L/H ratio) of acetylated peptide GIVLEK(ac)VGVEAK (SEQ ID NO: 320) (40S ribosomal protein S23 [54], RPS23, drug:DMSO): 1.00 log 2; light to heavy ratio (L/H ratio), log 2 scale, acetylated peptide K(ac)FGQGSR (SEQ ID NO: 809) (40S ribosomal protein S29 [13], gene RPS29, drug:DMSO): 1.00; light to heavy ratio (L/H ratio), log 2 scale, acetylated peptide ATWK(ac)SNYFLK (SEQ ID NO: 760) (60S acidic ribosomal protein P0 [10], gene RPLP0, drug:DMSO): 0.91; light to heavy ratio (L/H ratio), log 2 scale, acetylated peptide ALEK(ac)IDLK (SEQ ID NO: 813) (60S ribosomal protein L3 [362], gene SNORD43, RPL3, drug:DMSO): 1.00; light to heavy ratio (L/H ratio) of acetylated peptide IPK(ac)HLTDAYFK (SEQ ID NO: 259) (60S ribosomal protein L6 [211], RPL6, drug:DMSO): 0.40 log 2; light to heavy ratio (L/H ratio), log 2 scale, acetylated peptide AVDSQILPK(ac)IK (SEQ ID NO: 761) (60S ribosomal protein L6 [261], gene RPL6, drug:DMSO): 0.92; light to heavy ratio (L/H ratio) of acetylated peptide HGYIK(ac)GIVK (SEQ ID NO: 556) (60S ribosomal protein L8 [42], gene RPL8, inhibitor:DMSO): 0.40 log 2; light to heavy ratio (L/H ratio) of acetylated peptide IDK(ac)PILK (SEQ ID NO: 506) (60S ribosomal protein L8 [177], gene RPL8, inhibitor:DMSO): −0.65 log 2; light to heavy ratio (L/H ratio) of acetylated peptide GPLDK(ac)WR (SEQ ID NO: 622) (60S ribosomal protein L10-like [208], gene RPL10L, inhibitor:DMSO): 0.48 log 2; light to heavy ratio (L/H ratio), log 2 scale, acetylated peptide YMVK(ac)SCGK (SEQ ID NO: 811) (60S ribosomal protein L10 [78], gene SNORA70, RPL10, drug:DMSO): 1.00; light to heavy ratio (L/H ratio), log 2 scale, acetylated peptide VDEVK(ac)STIK (SEQ ID NO: 805) (60S ribosomal protein L10a [152], gene RPL10A, drug:DMSO): 1.00; light to heavy ratio (L/H ratio) of acetylated peptide VITEEEK(ac)NFK (SEQ ID NO: 522) (60S ribosomal protein L13 [174], gene RPL13, inhibitor:DMSO): −0.46 log 2; light to heavy ratio (L/H ratio) of acetylated peptide LAAIVAK(ac)QVLLGR (SEQ ID NO: 505) (60S ribosomal protein L13a [25], gene SNORD32A, RPL13A, SNORD33, SNORD34, inhibitor:DMSO): −0.67 log 2; light to heavy ratio (L/H ratio) of acetylated peptide K(ac)FAYLGR (SEQ ID NO: 614) (60S ribosomal protein L13a [134], gene SNORD32A, RPL13A, SNORD33, SNORD34, inhibitor:DMSO): 0.47 log 2; light to heavy ratio (L/H ratio), log 2 scale, acetylated peptide LAHEVGWK(ac)[…] (SEQ ID NO: 812) (60S ribosomal protein L13a [148], gene SNORD32A, RPL13A, SNORD33, SNORD34, drug:DMSO): 1.00; light to heavy ratio (L/H ratio) of acetylated peptide […](ac)PVHK (SEQ ID NO: 581) (60S ribosomal protein L15 [153], gene RPL15, inhibitor:DMSO): 0.43 log 2; light to heavy ratio (L/H ratio) of acetylated peptide GHK(ac)FHHTIGGSR (SEQ ID NO: 519) (60S ribosomal protein L15 [179], gene RPL15, inhibitor:DMSO): −0.51 log 2; light to heavy ratio (L/H ratio), log 2 scale, acetylated peptide SFVK(ac)[…] (SEQ ID NO: 770) (60S ribosomal protein L27 [73], gene RPL27, drug:DMSO): 0.99; light to heavy ratio (L/H ratio), log 2 scale, acetylated peptide YSVDIPLDK(ac)TVVNK (SEQ ID NO: 807) (60S ribosomal protein L27 [93], gene RPL27, drug:DMSO): 1.00; light to heavy ratio (L/H ratio), log 2 scale, acetylated peptide TVVNK(ac)DVFR (SEQ ID NO: 766) (60S ribosomal protein L27 [98], gene RPL27, drug:DMSO): 0.94; light to heavy ratio (L/H ratio) of acetylated peptide NCSSFLIK(ac)R (SEQ ID NO: 558) (60S ribosomal protein L28 [19], gene RPL28, inhibitor:DMSO): 0.40 log 2; light to heavy ratio (L/H ratio) of acetylated peptide IHGVGFK(ac)K (SEQ ID NO: 542) (60S ribosomal protein L31 [39], gene RPL31, inhibitor:DMSO): 0.39 log 2; light to heavy ratio (L/H ratio), log 2 scale, acetylated peptide LNK(ac)AVWAK (SEQ ID NO: 808) (60S ribosomal protein L31 [70], gene RPL31, drug:DMSO): 1.00; light to heavy ratio (L/H ratio) of acetylated peptide […](ac)ENLR (SEQ ID NO: 610) (60S ribosomal protein L35 [66], gene RPL35, inhibitor:DMSO): 0.47 log 2; light to heavy ratio (L/H ratio) of acetylated peptide LWSK(ac)AIFAGYK (SEQ ID NO: 538) (60S ribosomal protein L35a [8], gene RPL35A, inhibitor:DMSO): 0.38 log 2

Source: patent US20140357512A1, “HISTONE DEACETYLASE (HDAC) BIOMARKERS IN MULTIPLE MYELOMA” (priority 2013, published 2014)
